According to publication PMC2766921 (Biochemistry, 2009):

Assays:
[1] = system: purified bacterial succinyl-CoA synthetase (BSCS); assay: in-gel BN-PAGE ATP hydrolysis assay; assay type: biochemical, Escherichia coli; settings: 8 mM ATP, 20 mM succinate, 0.5 mM CoA, 14 mM MgSO4, pH 7.8, room temperature
[2] = system: purified bacterial succinyl-CoA synthetase (BSCS); assay: in-gel BN-PAGE GTP hydrolysis assay; assay type: biochemical, Escherichia coli; settings: 8 mM GTP, 20 mM succinate, 0.5 mM CoA, 14 mM MgSO4, pH 7.8, room temperature

purified bacterial succinyl-CoA synthetase (BSCS), sequence (P0AGE9 2-289): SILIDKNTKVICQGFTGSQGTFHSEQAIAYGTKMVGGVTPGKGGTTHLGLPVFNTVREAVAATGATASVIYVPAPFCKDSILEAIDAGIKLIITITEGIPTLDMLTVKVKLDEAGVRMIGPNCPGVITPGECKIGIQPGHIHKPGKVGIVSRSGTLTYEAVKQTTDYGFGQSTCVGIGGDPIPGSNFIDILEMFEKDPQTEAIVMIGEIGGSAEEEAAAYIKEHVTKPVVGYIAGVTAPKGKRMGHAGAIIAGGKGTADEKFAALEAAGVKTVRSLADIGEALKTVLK
purified bacterial succinyl-CoA synthetase (BSCS), sequence (P0A836 whole entry, further chain): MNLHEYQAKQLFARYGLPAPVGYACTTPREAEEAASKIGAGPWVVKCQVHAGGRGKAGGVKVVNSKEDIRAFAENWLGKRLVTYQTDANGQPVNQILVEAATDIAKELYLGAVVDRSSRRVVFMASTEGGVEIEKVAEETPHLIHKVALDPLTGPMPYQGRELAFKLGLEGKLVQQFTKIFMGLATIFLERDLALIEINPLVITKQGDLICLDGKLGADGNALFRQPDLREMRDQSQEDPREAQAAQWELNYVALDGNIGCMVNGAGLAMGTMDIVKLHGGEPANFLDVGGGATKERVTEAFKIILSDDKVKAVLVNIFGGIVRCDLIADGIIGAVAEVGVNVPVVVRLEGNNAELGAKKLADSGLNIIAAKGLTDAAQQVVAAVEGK

SMILES | in-gel BN-PAGE ATP hydrolysis assay (lead phosphate) [1] | in-gel BN-PAGE GTP hydrolysis assay (lead phosphate) [2]
Nc1ncnc2c1ncn2[C@@H]1O[C@H](COP(=O)(O)OP(=O)(O)OP(=O)(O)O)[C@@H](O)[C@H]1O [ATP] | ATP-dependent activity of BSCS was higher than the GTP-dependent activity | 
Nc1nc2c(ncn2[C@@H]2O[C@H](COP(=O)(O)OP(=O)(O)OP(=O)(O)O)[C@@H](O)[C@H]2O)c(=O)[nH]1 [GTP] |  | ATP-dependent activity of BSCS was higher than the GTP-dependent activity
